Counter-ions that a name gives are not always drawn.

Consider 26 compounds from US4824868A, “Propylamine derivatives useful for the treatment of dementia” (Ciba-Geigy Corporation, priority 1987, dated 1989).

Test [1] deals with serotonin (5-HT) uptake, rat whole brain synaptosomes. Put plainly: Inhibition of tritiated serotonin uptake into synaptosomes from rat whole brain in vitro. The following applies: for IC50: rat whole brain synaptosomes, 3H-5-HT about 1×10^-7 M, 5 min preincubation, 4 min incubation. The class given is biochemical. The procedure: (§1) Compounds of the previous examples are tested for their ability to block the uptake of tritiated serotonin into synaptosomal nerve endings from rat whole brain in vitro essentially by the method of Thornburg and Moore as described in Res. Comm. Chem. Pathol. Pharmacol. 5, 81 (1973). The preincubation period of the test compound (added in ethanol solution) with the whole brain synaptosome suspension in Krebs buffer is 5 minutes. The incubation period, following the addition of tritiated serotonin (^3 H-5-HT) to a final concentration of about 1×10^-7 M, is 4 minutes. The concentration of test agent required to inhibit serotonin uptake by 50% of control value i.e. the IC50, is determined graphically and expressed in micromolar concentration.

In test [2] the test system is norepinephrine (NE) uptake, rat whole brain synaptosomes. As to the kind of experiment: Inhibition of tritiated norepinephrine uptake into synaptosomes from rat whole brain in vitro. Type of test: biochemical. The note with it: 3H-NE. The procedure: as §1
The concentration of test agent required to inhibit norepinephrine (NE) uptake by 50% of the control value, i.e., the IC50 is similarly determined using tritiated norepinephrine (^3 H-NE) and is also expressed in micromolar concentration.

In the next test the test system is serotonin uptake. Put plainly: H 75/12 test: inhibition of the serotonin depleting effect of H 75/12 in rat brain. Type of test: in vivo. The following applies: for ED50: oral, 30 minutes before H 75/12 (25 mg/kg s.c.), 4 hours. How it is done: The inhibition of the serotonin depleting effect of 3-hydroxy-4-methyl-α-ethylphenethylamine (H 75/12) in rat brain serves as an indirect indication of serotonin uptake inhibitory activity. (Carlsson, Corrodi, Fuxe and Hoekfelt, Europ. J. Pharmacol. 5, 357, 1969). A diminution of serotonin release by H 75/12 is considered to be due to a serotonin uptake inhibitory effect of the test compound. The compound to be tested is administered orally 30 minutes before H 75/12 (25 mg/kg s.c.) and the animals are decapitated 4 hours thereafter. The brains are immdiately taken out and serotonin is determined as described above. The ED50 represents the dose of the test compound inhibiting the serotonin-depleting effect of H75/12 by 50%.

In test [3] the test system is serotonin (5-HT) uptake, rat midbrain synaptosomes. As to the kind of experiment: Inhibition of 3H-5-HT uptake in rat midbrain synaptosomes in vitro. The class given is biochemical. The following applies: rat midbrain-diencephalon synaptosomes; 5-HT 2.5×10^-9 M; 10 minutes. How it is done:
The inhibition of serotonin (5-HT) uptake indicative of potential antidepressant activity is determined in rat midbrain synaptosomes in vitro as follows:
Synaptosomes from the rat midbrain-diencephalon region are prepared and the uptake of ^3 H-5-HT measured as described by Baumann and Maitre, Naunyn-Schmiedeberg's Arch. Pharmacol. 300, 31 (1977). The concentration of 5-HT in the incubation medium is 2.5×10^-9 M, and the incubation period is 10 minutes. The concentration of a compound of this invention required to inhibit serotonin uptake by 50%, i.e. the IC50, is determined.

The test system of test [4] is norepinephrine (NE) uptake, rat midbrain synaptosomes. As to the kind of experiment: Inhibition of 3H-NE uptake in rat midbrain synaptosomes in vitro. The note with it: rat midbrain-diencephalon synaptosomes; NE 1×10^-8 M; 20 minutes. The class given is biochemical. The procedure: The inhibition of norepinephrine (NE) uptake is determined in rat midbrain synaptosomes in vitro as follows:
Synaptosomes from the rat midbrain-diencephalon region are prepared and the uptake of ^3 H-NE is measured as described by Baumann and Maitre, Naunyn-Schmiedeberg's Arch. Pharmacol. 300, 31 (1977). The concenrtration of NE in the incubation medium is 1×10^-8 M, and the incubation period is 20 minutes. The concentration required to inhibit norepinephrine uptake by 50%, i.e. the IC50, is determined.

A further test deals with serotonin (5-HT) uptake. As to the kind of experiment: Serotonin (5-HT) uptake inhibition in rats pretreated with compounds. The class given is in vivo, rat. The procedure: Serotonin (5-HT) uptake inhibition is also determined in rats pretreated with compounds of the instant invention.
The subject of test [5] is reserpine treated rabbits. Put plainly: Reversal of reserpine-induced ptosis in the rabbit. The following applies: reserpine 2 mg/kg i.v. 90 minutes before i.v. infusion of 0.2% drug solution. The class given is in vivo. The procedure: The serotonin uptake inhibiting or serotonin activating properties of the compounds of the invention are indicative of antidepressant properties as determined by the reversal of reserpine-induced ptosis (i.e. […]) in the rabbit. Rabbits are injected intravenously with 2 mg/kg reserpine 90 minutes before the i.v. infusion of 0.2% drug solution into the ear vein according to the method of J. Mizoule et al. (J. Pharmacol., 8, 3, 269-285, 1977). The complete opening of the eye-lids is taken as a criterion for reversal of the reserpine-induced ptosis. The results are expressed in terms of the mean dose of test compound inducing complete opening of the eye-lids in reserpine treated rabbits.

As to `COc1cccc(SCC(Cc2ccccc2)CN(C)C)c1` (centres unmarked) [3/11], the IC50 in test [1] was found to be 1950 nM; in test [2] it was 7.6 µM.

In the case of `Cc1ccc(OCC(Cc2ccccc2)CN(C)C)cc1` (centres unmarked) [3/7], the figures for the IC50 in test [1] and in test [2] were 1220 nM and 12.5 µM, respectively.

On to `CNCC(COc1ccccc1OC)Cc1ccccc1` (centres unmarked) [Example 8, N-methyl-2-benzyl-3-(2-methoxyphenoxy)propylamine oxalate], for which the results for the IC50 in test [1] and in test [2] were 5400 nM and 8.9 µM, respectively.

In the case of `C=CCOc1cccc(OCC(Cc2ccccc2)CN(C)C)c1` (centres unmarked) [3/13], the IC50 in test [1] was 590 nM; in test [2], 1.44 µM.

Regarding `CSc1ccc(OCC(Cc2cccc(Cl)c2)CN(C)C)cc1.O=C(O)C(=O)O` (centres unmarked) [Example 2, N,N-dimethyl-2-(3-chlorobenzyl)-3-(4-methylmercaptophenoxy)propylamine oxalate], the ED50 in the test with serotonin uptake is about 1.4 mg/kg. Also, the IC50 was determined as 30 nM in test [1] and 5 µM in test [2].

`COc1ccc(OCC(Cc2ccccc2)CN(C)C)cc1` (centres unmarked) [3/16]: the IC50 in test [1] came out at 560 nM; in test [2] it was 0.57 µM.

For `COc1ccc(OCC(Cc2ccccc2)CN2CCCCC2)cc1` (centres unmarked) [3/5], the IC50 in test [1] is 6100 nM; in test [2] it was 39.5 µM.

Consider `CN(C)CC(COc1cccc(C(F)(F)F)c1)Cc1ccccc1` (centres unmarked) [3/10], for which the IC50 in test [1] worked out at 2250 nM; in test [2], 6.9 µM.

With `CSc1ccc(OCC(Cc2ccccc2)CN(C)C)cc1.O=C(O)C(=O)O` (centres unmarked) [3/2, N,N-dimethyl-2-benzyl-3-(4-methylmercaptophenoxy)-propylamine oxalate], the IC50 is about 30 nM in test [3], about 500 nM in test [4], 270 nM in test [1] and 10.8 µM in test [2]. Further, the “inhibition of 3H-5HT uptake” value with serotonin (5-HT) uptake (30 mg/kg p.o.) is “about 80%”. In addition, in test [5], the “mean dose inducing complete opening of the eye-lids” value (“mean dose inducing complete opening” below) is “about 7.7 mg/kg i.v”. Further, in the test on serotonin uptake, the ED50 is about 2.3 mg/kg.

In the case of `CNCC(COc1cccc(OC)c1)Cc1ccccc1` (centres unmarked) [Example 5, N-methyl-2-benzyl-3-(3-methoxyphenoxy)propylamine oxalate], the IC50 in test [1] is 940 nM; in test [2], 1.39 µM.

Turning to `CNCC(COc1ccc(SC)cc1)Cc1cccc(Cl)c1` (centres unmarked) [6/3], the IC50 in test [1] amounted to 2700 nM; in test [2], 11 µM.

For the compound `CNCC(COc1ccc(SC)cc1)Cc1ccccc1` (centres unmarked) [6/2, N-methyl-2-benzyl-3-(4-methylthiophenoxy)propylamine], the half-inhibitory concentration (IC50) in test [1] is 140 nM; in test [2], 2.5 µM.

Consider `CN(C)CC(COc1ccc(Cl)cc1)Cc1ccccc1` (centres unmarked) [3/4], for which the IC50 in test [1] was 1490 nM; in test [2], 12 µM.

`COc1cc(OC)cc(OCC(Cc2ccccc2)CN(C)C)c1` (centres unmarked) [3/12]: the IC50 in test [1] was 1520 nM; in test [2], 4.3 µM.

Turning to `CNCC(COc1ccc(C(F)(F)F)cc1)Cc1ccccc1` (centres unmarked) [Example 4, N-methyl-2-benzyl-3-(4-trifluoromethylphenoxy)propylamine hydrochloride], the IC50 in test [1] was 390 nM; in test [2] it was 12.6 µM.

`CN(C)CC(COc1cccc(Cl)c1)Cc1ccccc1` (centres unmarked) [3/6]: the IC50 stood at 2700 nM in test [1] and 16.1 µM in test [2].

As to `CNCC(COc1ccc(C(F)(F)F)cc1)Cc1ccccc1.O=C(O)C(=O)O` (centres unmarked) [N-methyl-2-benzyl-3-(4-trifluoromethylphenoxy)-propylamine oxalate], the IC50 is about 10 nM in test [3] and about 2000 nM in test [4]. Also, the “inhibition of 3H-5HT uptake” value in the test with serotonin (5-HT) uptake (10 mg/kg p.o.) is on record as about 50%. Besides, in test [5], the “mean dose inducing complete opening” value was about 12.9 mg/kg i.v. In addition, the ED50 in the test on serotonin uptake is about 1.8 mg/kg.

Turning to `CN(C)CC(COc1ccc(C(F)(F)F)cc1)Cc1ccccc1.O=C(O)C(=O)O` (centres unmarked) [Example 1, N,N-dimethyl-2-benzyl-3-(4-trifluoromethylphenoxy)propylamine oxalate], the IC50 in test [3] was about 15 nM; in test [4] it was about 3000 nM; in test [1], 490 nM; in test [2], 15.2 µM. In addition, the “inhibition of 3H-5HT uptake” value in the test on serotonin (5-HT) uptake (30 mg/kg p.o.) is listed as about 60%. For the same compound, the “mean dose inducing complete opening” value in test [5] is on record as about 12.6 mg/kg i.v. In the test on serotonin uptake, the ED50 is about 4.5 mg/kg.

With `CN(C)CC(COc1ccc(C(F)(F)F)cc1)Cc1cccc(Cl)c1` (centres unmarked) [3/15], the IC50 turned out to be 6000 nM in test [1] and 32 µM in test [2].

In the case of `COc1ccc(SCC(Cc2ccccc2)CN(C)C)cc1` (centres unmarked) [3/9], the IC50 in test [1] turned out to be 1530 nM; in test [2], 8.1 µM.

For `CCN(CC)CC(COc1ccccc1)Cc1ccccc1.Cl` (centres unmarked) [Example 16, N,N-diethyl-2-benzyl-3-phenoxypropylamine hydrochloride, reference compound], the IC50 in test [3] came to 2200 nM; in test [4], 2000 nM; in test [1] it was 7300 nM; in test [2], 3.3 µM. Further, the “inhibition of the serotonin-depleting effect of H 75/12” value with serotonin uptake (30 mg/Kg p.o.) was found to be 17%. Also, the “in vivo serotonin uptake inhibitory activity” value in the test on serotonin uptake (30 mg/Kg p.o., in words) is reported as “no significant in vivo serotonin uptake inhibitory activity”. Besides, the “selectivity (serotonin vs norepinephrine uptake) in in vitro tests” value in test [1] (in vitro, whole brain and midbrain synaptosomes, in words) was “no selectivity is seen in in vitro tests”.

For `CSc1ccc(OCC(Cc2ccc(Cl)cc2)CN(C)C)cc1` (centres unmarked) [3/14], the IC50 in test [1] is 670 nM; in test [2], 7.1 µM.

On to `CN(C)CC(COc1ccccc1Cl)Cc1ccccc1` (centres unmarked) [3/3], for which the IC50 in test [1] came out at 1300 nM; in test [2], 5.3 µM.

In the case of `CNCC(COc1ccc(OC)cc1)Cc1ccccc1` (centres unmarked) [6/1], the 50% inhibitory concentration (IC50) in test [1] was 440 nM; in test [2], 1.25 µM.

As to `COc1cccc(OCC(Cc2ccccc2)CN(C)C)c1` (centres unmarked) [3/1], the IC50 in test [1] was found to be 430 nM; in test [2] it was 4.3 µM.

As for `Cc1cccc(OCC(Cc2ccccc2)CN(C)C)c1` (centres unmarked) [3/8], the IC50 was determined as 1250 nM in test [1] and 3.25 µM in test [2].
